Residues, ends and D or L forms follow the SMILES beside them.
Key:
[1] = intravenous feeding regimen; cited from earlier work
[2] = Urinary excretion and nitrogen balance after laparotomy in dogs; assay type: in vivo, dog; conditions: projected intake 0.312 gm N/24 hr/kg
Method: Urine excreted during the 24 hours of infusion was collected in the closed urinary collecting system and stored in acidified, refrigerated containers. Aliquots were stored frozen at -20° C. for batch analysis.
All solutions were infused at the rate of 4 ml/minute/kg. Five control animals received 0.9% saline. Amino acid solutions (Table V) containing BCCA's at three different concentrations (11%, 22%, or 44% of total amino acids) were prepared by adding amino acids to an 8.5% standard amino acid formula, FreAmine III (American McGaw, Irvine, Calif.). The total BCAA infusion rates were 0.46, 0.92, and 1.84 grams/24 hours/kg, respectively. All three amino acid solutions were isonitrogenous, providing approximately 0.624 grams of nitrogen/24 hours/kg, with a constant ratio of valine to leucine to isoleucine (1: 1.38:1.05). Nine animals received an 11% BCAA solution which was made by dissolving a mixture of non-essential amino acids (NEAA) in 2.13% FreAmine III to make a solution that provided 0.624 grams of nitrogen/24 hours/kg. […] Six animals received 4.25% FreAmine III alone (22% BCAA). The final seven animals received 2.13% FreAmine III supplemented with enough BCAA's to make a 44% solution. […] All solutions were sterilized by passage through a 0.22 uM filter (Millipore, Millis, Mass.) and stored overnight at 4° C. prior to administration. […]

[3] = rat
Method: Lactulose is a non-metabolizable sugar that is poorly absorbed from the gastrointestinal tract. In gastrointestinal disorders such as inflammatory bowel disease, lactulose is taken up through gaps in the mucosal membrane, allowing its excretion in the urine. The amount of urinary lactulose is therefore a measure of "leakage" across the gut mucosal barrier (Menzies, Biochem. Soc. Trans. […]:1042-1047 (1974)).
Rats were treated with 5-fluorouracil as described in Example 8, above. Lactulose, 2 ml iso-osmolar solution of 100 mg/ml, was infused by gavage and urine was collected over the subsequent 24 hr and frozen. Urinary lactulose was determined enzymatically as described by Ziegler et al. (Arch. Surg. 123:1313-1319 (1988)).

[4] = Parenteral nutrition after 5-FU injury in rats: intestinal and hematological indices; assay type: in vivo; conditions: all drug-treated animals, independent of diet
Method: Rats were catheterized as previously described and after a minimum of 3 hr following recovery from anesthesia, groups of animals received 100, 150 or 200 mg/kg of 5-FU by i.p. injection. […] The nutrition infusion, started 4 hr after 5-FU or saline, was continued for 4 d. at a rate of 46 ml/24 hr.
Blood and intestinal tissue were sampled and prepared for analysis as described in the examples above. The hemoglobin, white blood cell and platelet numbers were determined as measures of the general hematological toxicity of the various doses of 5-FU.
All analyses were performed as previously described in Examples 6 and 7. Statistical analyses were performed using two-way analysis of variance comparing both diets and dose of 5-FU. Unpaired t tests were used to compare two treatment groups at one dose of 5-FU. Differences were considered statistically significant at a p value of <0.05.

In the case of `C[C@H](N)C(=O)N[C@@H](CCC(N)=O)C(=O)O` [L-alanyl-L-glutamine] (H-Ala-Gln-OH), the Postoperative nitrogen balance [1] is listed as “improve postoperative nitrogen balance”.

With `NC(=O)CC[C@H](N)C(=O)O` [Glutamine, glutamine] the Nitrogen balance [2] was -0.386 ± 0.086 gm/24 hr/kg and the Nitrogen excretion [2] was 0.709 ± 0.085 gm/24 hr/kg.

In the case of `O=c1[nH]cc(F)c(=O)[nH]1` [5-FU, 5-fluorouracil], the “Gut permeability to lactulose” value [3] is reported as “increase gut permeability to lactulose”, the “Time of peak increase in gut permeability” value [3] is reported as “between 24 and 48” and the “Circulating white blood cell and platelet counts” value [4] is reported as “marked decline in the circulating white blood cell and platelet counts”.
